From patent publication US20020099206A1, “Cephalosporin crystals and process for their preparation” (priority 1997, published 2002)

Assay: stability of Compound (1a) under crystallization conditions (Comparative Test Examples 1 and 2)
Format: physicochemical
Experimental: Subsequently, stability of Compound (1a) under crystallization conditions was tested. The results are shown in the following Comparative Test Examples 1 and 2.
200 mg of oily 7-phenylacetamido-3-chloromethyl-cephem-4-carboxylic acid p-methoxybenzyl ester was dissolved in 0.2 ml of dimethylformamide. The solution was pored into 1 ml of methanol precooled to 3° C. to precipitate crystals. The mixture was stirred at 3 to 5° C. for 20 hours. Then, an ethyl acetate/water mixture was added to dissolve the crystals, and the solution was subjected to extraction. The organic layer was dried over sodium sulfate. The resulting solution was filtered, and the filtrate was concentrated under reduced pressure. The concentrate was purified by silica gel chromatography (Wako gel C-200, benzene/ethyl acetate=4/1), giving 197 mg of oily 7-phenylacetamido-3-chloromethyl-cephem-4-carboxylic-acid-p-methoxybenzyl ester (yield: 99%).
200 mg of oily 7-phenylacetamido-3-chloromethyl-cephem-4-carboxylic acid p-methoxybenzyl ester was dissolved in 0.2 ml of dimethylformamide. The solution was pored into 1 ml of methanol to precipitate crystals. The mixture was stirred at 30 to 35° C. for 20 hours. Then, an ethyl acetate/water mixture was added to dissolve the crystals, and the solution was subjected to extraction. The organic layer was dried over sodium sulfate. The resulting solution was filtered, and the filtrate was concentrated under reduced pressure.
For example, thin-layer chromatography of the obtained product (conditions: Merk Pre-Coated TLC Plates SILICA GEL 60F254 (Merk); benzene/ethyl acetate=4/1) developed color in zones corresponding to 7-phenylacetamide-3-chloromethyl-cephem-4-carboxylic acid p-methoxybenzyl ester (Compound (1a)) (Rf=0.46), 7-phenylacetamide-3-methoxymethyl-cephem-4-carboxylic acid p-methoxybenzyl ester (Compound A) (Rf=0.33) and decomposition product of Compound (1a) (Rf≈0, in the vicinity of the placing point). […]

[1] = dimethylformamide solution poured into uncooled methanol, stirred at 30 to 35° C. for 20 hours

7-phenylacetamido-3-chloromethyl-cephem-4-carboxylic acid p-methoxybenzyl ester recovered (yield) (dimethylformamide solution poured into methanol precooled to 3° C., stirred at 3 to 5° C. for 20 hours): 99%
Compound (1a) recovered (yield) [1]: 71%
highly polar component Compound A formed (yield) [1]: 9%
SMILES: COc1ccc(COC(=O)C2=C(CCl)CS[C@@H]3C(NC(=O)Cc4ccccc4)C(=O)N23)cc1 (stereo partly drawn) [Compound (1a), 7-phenylacetamido-3-chloromethyl-cephem-4-carboxylic acid p-methoxybenzyl ester]
